# Results reported in patent publication US20260000675A1, “COMBINATION THERAPY FOR PREVENTING OR TREATING OBESITY” (LG CHEM, LTD., priority 2022, published 2026).
# Tests used:
# Assay type in all cases: in vivo
# [1] = tested on: diet-induced obesity (DIO) mouse model; assay: Weight loss effect on repeated co-administration with semaglutide in DIO mice; conditions: repeated co-administration with semaglutide over 18 days, versus single administration, FIGS. 1 and 2
# Procedure: In a diet-induced obesity (DIO) mouse model where obesity was induced using a high-fat diet, the weight loss effect was measured over 18 days following repeated co-administration of semaglutide (a GLP-1 receptor agonist, trade name: Ozempic) and an MC4R agonist, N-((3S,5S)-1-((3S,4R)-1-(tert-butyl)-4-(4-chlorophenyl)pyrrolidine-3-carbonyl)-5-(morpholin-4-carbonyl)pyrrolidin-3-yl)-N-((1 S,4R)-4-methylcyclohexyl)isobutyramide hydrochloride obtained in Preparation Example (hereinafter referred to as ‘test compound’). Body weight measurements were taken once daily prior to the administration of the test substances, and changes in body weight compared to weight (D1) prior to the administration of the test substances were calculated and presented in FIGS. 1 and 2. By comparing the weight loss effect in the co-administration group to that in the single administration group, the effect of co-administration of a GLP-1 receptor agonist and the test compound was evaluated.
# [2] = tested on: diet-induced obesity (DIO) mouse model; assay: Reduction in liver/fat weight on repeated co-administration with semaglutide in DIO mice; conditions: after 3 weeks, FIG. 3
# Procedure: In a diet-induced obesity (DIO) mouse model where obesity was induced using a high-fat diet, the effect of reduction in liver and fat weights was measured after 3 weeks of repeated co-administration of semaglutide (a GLP-1 receptor agonist, trade name: Ozempic) and the test compound, which is an MC4R agonist, with the results shown in FIG. 3.
# [3] = tested on: diet-induced obesity (DIO) mouse model; assay: Comparative example: weight loss on co-administration of semaglutide with test compound or setmelanotide in DIO mice; conditions: repeated co-administration with semaglutide for 18 days, test compound 15 mg/kg/day, comparative compound 3 mg/kg/day, FIG. 4
# Excerpt: In a diet-induced obesity (DIO) mouse model where obesity was induced using a high-fat diet, the weight loss effect was compared after 18 days of repeated co-administration of semaglutide (a GLP-1 receptor agonist, trade name: Ozempic) with either the test compound, which is an MC4R agonist, or setmelanotide (RM-493), which is a peptide MC4R agonist (hereinafter referred to as ‘comparative compound’). Dosages of the test compound and the comparative compound were selected based on the efficacious doses observed in single administration studies (test compound: 15 mg/kg/day, comparative compound: 3 mg/kg/day). Body weight measurements were taken once daily prior to the administration of the test substances, and changes in body weight after 18 days relative to weight (D1) prior to the administration of the test substances were calculated and presented in FIG. 4.
# [4] = tested on: diet-induced obesity (DIO) mouse model; assay: Combination study with PF-06882961 (danuglipron) in DIO mice: food intake, body weight, body fat mass, OGTT
# Procedure: In a diet-induced obesity (DIO) mouse model where obesity was induced using a high-fat diet, changes in food intake and body weight were measured over 4 weeks of repeated co-administration of PF-06882961 (danuglipron), which is an oral GLP-1 receptor agonist, and the test compound, which is an MC4R agonist. Food intake and body weight were measured once daily prior to the administration of the test substances, and changes in body weight relative to weight (D1) prior to the administration of the test substances were calculated, with the results presented in FIGS. 5 and 6, respectively. Further, on the 28th day after the administration of the test substances, body fat mass and an oral glucose tolerance test (OGTT) were measured, with the results shown in FIGS. 7 and 8, respectively. Body fat mass was measured using a ^1H-Mini-spec system (LF-9011, Bruker Optics GmbH, Germany) and blood glucose was measured using GM9 (Analox Instruments Ltd., UK) with blood samples collected from the tail vein.
structure (smiles),measurement,setting,value
"CC(C)C(=O)N([C@H]1C[C@@H](C(=O)N2CCOCC2)N(C(=O)[C@@H]2CN(C(C)(C)C)C[C@H]2c2ccc(Cl)cc2)C1)[C@H]1CC[C@@H](C)CC1.Cl [test compound, N-((3S,5S)-1-((3S,4R)-1-(tert-butyl)-4-(4-chlorophenyl)pyrrolidine-3-carbonyl)-5-(morpholine-4-carbonyl)pyrrolidin-3-yl)-N-((1s,4R)-4-methylcyclohexyl)isobutyramide hydrochloride]",weight loss effect (change in body weight relative to D1),[1],synergistic weight loss effect
same,effect of reduction in fat weight,[2],synergistic effect in reducing liver and fat weights
same,effect of reduction in liver weight,[2],synergistic effect in reducing liver and fat weights
same,weight loss effect (change in body weight after 18 days relative to D1),[3],significant synergistic weight loss effect
same,reduction in body fat mass,"[4]; co-administration with PF-06882961, day 28, 1H-Mini-spec, versus single administration, FIG. 7",much greater reduction in body fat mass
same,improvement in glucose tolerance (OGTT),"[4]; co-administration with PF-06882961, day 28, oral glucose tolerance test, versus single administration, FIG. 8",improvement in glucose tolerance
same,weight loss effect (change in body weight relative to D1),"[4]; repeated co-administration with PF-06882961 over 4 weeks (28 days), versus single administrations, FIG. 6",synergistic weight loss effect
same,reduction in food intake,"[4]; repeated co-administration with PF-06882961 over 28 days, versus single administrations, FIG. 5",significant reduction in food intake
